This is an account of results in patent US20130303535A1, “NOVEL BICYCLIC HETEROCYCLIC COMPOUND” (priority 2008, published 2013).

The structures appear in SMILES notation. Where a name gives a salt, the structure may show the parent alone.

The target of the assay is TTX resistant Na channel of human SNS-expressing cell (SNS) (Homo sapiens, UniProt Q9Y5Y9). Kind of assay: cell-based. Conditions: CHO-K1, compound concentration 12.5 μM; read-out: SNS inhibitory rate (%).
Sequence of TTX resistant Na channel of human SNS-expressing cell (SNS) (Q9Y5Y9 whole entry, looked up): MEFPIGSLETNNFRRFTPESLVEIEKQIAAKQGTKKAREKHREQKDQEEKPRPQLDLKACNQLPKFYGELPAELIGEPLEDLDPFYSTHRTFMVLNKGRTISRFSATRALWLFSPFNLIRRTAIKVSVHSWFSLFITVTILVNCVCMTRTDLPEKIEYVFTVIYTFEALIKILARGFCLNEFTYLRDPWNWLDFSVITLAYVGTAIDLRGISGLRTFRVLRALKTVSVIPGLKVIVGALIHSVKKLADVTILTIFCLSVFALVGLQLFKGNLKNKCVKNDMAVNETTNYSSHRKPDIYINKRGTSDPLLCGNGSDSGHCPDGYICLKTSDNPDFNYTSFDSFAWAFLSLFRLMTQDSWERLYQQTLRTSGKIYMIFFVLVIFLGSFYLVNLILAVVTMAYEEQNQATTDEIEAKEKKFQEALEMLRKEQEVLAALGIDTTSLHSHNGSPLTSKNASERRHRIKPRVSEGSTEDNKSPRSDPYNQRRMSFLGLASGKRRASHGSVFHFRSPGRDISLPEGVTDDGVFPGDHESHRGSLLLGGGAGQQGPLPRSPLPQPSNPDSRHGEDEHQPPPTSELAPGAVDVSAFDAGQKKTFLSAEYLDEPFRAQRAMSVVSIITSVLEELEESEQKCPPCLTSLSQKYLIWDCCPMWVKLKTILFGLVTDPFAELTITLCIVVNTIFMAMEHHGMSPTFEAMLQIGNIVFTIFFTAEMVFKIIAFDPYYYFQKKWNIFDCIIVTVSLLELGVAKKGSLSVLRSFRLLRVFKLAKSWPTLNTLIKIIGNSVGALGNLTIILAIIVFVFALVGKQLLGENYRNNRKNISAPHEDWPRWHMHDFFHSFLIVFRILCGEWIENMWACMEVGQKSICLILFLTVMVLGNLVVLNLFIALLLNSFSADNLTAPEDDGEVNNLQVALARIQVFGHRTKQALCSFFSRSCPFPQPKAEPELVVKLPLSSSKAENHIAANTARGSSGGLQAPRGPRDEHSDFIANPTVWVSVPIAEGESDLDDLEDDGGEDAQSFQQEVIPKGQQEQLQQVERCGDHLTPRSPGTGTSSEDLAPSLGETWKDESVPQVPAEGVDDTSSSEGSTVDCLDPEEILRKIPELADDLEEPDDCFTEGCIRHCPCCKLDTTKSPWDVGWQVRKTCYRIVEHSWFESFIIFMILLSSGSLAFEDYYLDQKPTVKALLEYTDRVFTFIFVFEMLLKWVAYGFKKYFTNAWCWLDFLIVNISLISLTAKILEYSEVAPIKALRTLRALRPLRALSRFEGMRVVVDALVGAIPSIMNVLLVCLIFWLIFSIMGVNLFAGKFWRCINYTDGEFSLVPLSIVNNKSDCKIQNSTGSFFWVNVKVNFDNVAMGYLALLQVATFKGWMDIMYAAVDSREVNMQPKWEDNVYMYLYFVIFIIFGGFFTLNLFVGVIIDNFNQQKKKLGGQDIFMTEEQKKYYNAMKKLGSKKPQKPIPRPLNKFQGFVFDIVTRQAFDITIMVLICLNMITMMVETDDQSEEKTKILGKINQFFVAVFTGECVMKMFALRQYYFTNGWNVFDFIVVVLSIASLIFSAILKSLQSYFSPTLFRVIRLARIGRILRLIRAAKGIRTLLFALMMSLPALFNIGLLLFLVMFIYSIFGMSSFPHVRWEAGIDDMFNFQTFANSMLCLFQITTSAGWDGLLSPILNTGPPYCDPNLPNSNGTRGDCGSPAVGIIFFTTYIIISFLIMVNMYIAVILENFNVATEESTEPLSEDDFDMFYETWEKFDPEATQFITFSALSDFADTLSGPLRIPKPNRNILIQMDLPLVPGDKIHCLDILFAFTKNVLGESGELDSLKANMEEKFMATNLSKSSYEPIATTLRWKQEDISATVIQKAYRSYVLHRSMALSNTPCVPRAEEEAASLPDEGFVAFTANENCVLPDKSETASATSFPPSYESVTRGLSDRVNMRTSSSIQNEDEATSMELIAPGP
Regarding `CCOCCn1c(CN[C@@H](C)C(N)=O)nc2cc(Cl)c(-c3ccc(F)c(F)c3)cc21` [Example 180], the inhibition at 12.5 µM is 4.5%.
The result for `CCOCCn1c(CN[C@@H](C)C(N)=O)nc2cc(Cl)c(-c3ccc(OC(F)(F)F)cc3)cc21` [Example 181] reads 0%.
`CCOCCn1c(CN[C@@H](C)C(N)=O)nc2cc(Cl)c(-c3ccc(C(F)(F)F)cc3)cc21` [Example 182]: the inhibition at 12.5 µM amounted to 0%.
The result for `CCOCCn1c(CN[C@@H](C)C(N)=O)nc2cc(F)c(-c3ccc(F)c(F)c3)cc21` [Example 183] reads 72.3%; that for `CCOCCn1c(CN[C@@H](C)C(N)=O)nc2cc(F)c(-c3ccc(C)cc3)cc21` [Example 184], 87.9%.
Then `CCOCCn1c(CN[C@@H](C)C(N)=O)nc2cc(F)c(-c3ccccc3)cc21` [Example 185], with 64.6%; and `CCOCCn1c(CN[C@@H](C)C(N)=O)nc2cc(F)c(-c3ccc(Cl)cc3)cc21` [Example 186], with 55.6%; and `CCn1c(CNC(C)(C)C(N)=O)nc2cc(F)c(-c3ccc(F)cc3)cc21` [Example 187], with 53.3%.
Take `CCOCCn1c(CN[C@@H](C)C(N)=O)nc2cc(F)c(-c3ccc(F)c(C)c3)cc21` [Example 188]: the inhibition at 12.5 µM came out at 87%.
On to `CCOCCn1c(CN[C@@H](C)C(N)=O)nc2cc(F)c(-c3ccc(C)c(F)c3)cc21` [Example 189], for which the inhibition at 12.5 µM amounted to 97.7%.
Then `CCOCCn1c(CN[C@@H](C)C(N)=O)nc2cc(C)c(-c3ccc(F)c(F)c3)cc21` [Example 190], with 34.3%; and `CCOCCn1c(CN[C@@H](C)C(N)=O)nc2cc(-c3ccc(Cl)cc3)ccc21` [Example 191, N^2-{[5-(4-chlorophenyl)-1-(2-ethoxyethyl)-1H-benzimidazol-2-yl]methyl}-L-alaninamide hydrochloride], with 23.3%; and `CCOCCn1c(CN[C@@H](C)C(N)=O)nc2cc(-c3ccc(OC)cc3)ccc21` [Example 192, N^2-{[1-(2-ethoxyethyl)-5-(4-methoxyphenyl)-1H-benzimidazol-2-yl]methyl}-L-alaninamide trifluoroacetate], with 11.9%.
Then `CCOCCn1c(CN[C@@H](C)C(N)=O)nc2ccc(-c3ccc(C)cc3)nc21` [Example 209, N^2-{[3-(2-ethoxyethyl)-5-(4-methylphenyl)-3H-imidazo[4,5-b]pyridin-2-yl]methyl}-L-alaninamide hydrochloride], with 6.5%.
